US20260232767A1, “INTERLEUKIN-23 RECEPTOR ANTAGONIST PEPTIDES FOR USE IN THE TREATMENT OF PSORIASIS” (Janssen Pharmaceutica NV, priority 2023, published 2026)

Tested on: subjects with moderate-to-severe plaque psoriasis
Experiment: PASI response, Example 2 long-term extension to Week 52
Format: in vivo, human
Details: for Change from Baseline in PASI Total Score, LSMean: MMRM model; for Subjects achieving 100% Improvement at Week 52 (PASI) / Subjects achieving ≥75% Improvement at Week 52 (PASI 75 Response) / Subjects achieving ≥90% Improvement at Week 52 (PASI): non-responder imputation
Source text: Described below is a multicenter, long-term extension (LTE), double-blind, dose-ranging, parallel group interventional study in participants from Example 1 to evaluate the long-term efficacy and safety of the hydrochloride salt of the compound of Formula (I) for the treatment of moderate-to-severe plaque psoriasis. Patients from Example 1 continued to receive the same dose of the compound of Formula (I) for an additional 36-week treatment period with a 4-week safety follow up period after the last administration of the compound of Formula (I). Patients randomized to placebo in Example 1 received the compound of Formula (I) at a dose of 100 mg QD starting at Week 16 of Example 1 (FIG. 21).
The primary efficacy endpoint is the proportion of participants achieving a PASI 75 response at Week 52, defined as at least a […] reduction from baseline PASI of Example 1. For primary analysis, composite strategy (non-responder imputation) was applied to address intercurrent event #1 (Discontinuation of study intervention due to lack of efficacy or due to an AE of worsening of psoriasis) and […] (initiation of a protocol-prohibited medication or therapy that could improve psoriasis); treatment policy strategy (observed data) was applied to intercurrent event #3 (Discontinuation of study intervention due to other reasons). Participants with missing data after application of ICEs are considered as non-responders.
Since there was no control arm (after week 16), in this primary analysis, only the proportion of participants who achieved a PASI75 response and its […] confidence interval at Week 52 were summarized for each intervention group.

CC(=O)NCCCC[C@@H]1NC(=O)[C@H](Cc2c[nH]c3c(C)cccc23)NC(=O)[C@H]([C@@H](C)O)NC(=O)[C@H](CC(N)=O)NC(=O)[C@@H](NC(C)=O)C(C)(C)SSC(C)(C)[C@@H](C(=O)N[C@@H](Cc2ccc(OCCN)cc2)C(=O)N[C@@H](Cc2ccc3ccccc3c2)C(=O)NC2(C(=O)N[C@@H](CCC(=O)O)C(=O)N[C@@H](CC(N)=O)C(=O)N[C@@H](Cc3cccnc3)C(=O)N(C)CC(N)=O)CCOCC2)NC1=O [IL-23 receptor antagonist peptide, Ac-[Pen]*-N-T-[W(7-Me)]-[Lys(Ac)]-[Pen]*-Phe[4-(2-aminoethoxy)]-[2-Nal]-[THP]-E-N-[3-Pal]-Sarc-NH2 (*[Pen]-[Pen]* formdisulfidebond)]
Change from Baseline in PASI Total Score, Mean (25 mg BID, Week 1): −1.20
Change from Baseline in PASI Total Score, Median (25 mg BID, Week 1): −0.80
Change from Baseline in PASI Total Score, LSMean (25 mg BID, Week 1): −1.4
Change from Baseline in PASI Total Score, Mean (25 mg BID, Week 2): −3.65
Change from Baseline in PASI Total Score, Median (25 mg BID, Week 2): −3.20
Change from Baseline in PASI Total Score, LSMean (25 mg BID, Week 2): −3.8
Change from Baseline in PASI Total Score, Mean (25 mg BID, Week 4): −6.26
Change from Baseline in PASI Total Score, Median (25 mg BID, Week 4): −6.30
Change from Baseline in PASI Total Score, LSMean (25 mg BID, Week 4): −6.7
Change from Baseline in PASI Total Score, Mean (25 mg BID, Week 8): −9.72
Change from Baseline in PASI Total Score, Median (25 mg BID, Week 8): −9.90
Change from Baseline in PASI Total Score, LSMean (25 mg BID, Week 8): −10.2
Change from Baseline in PASI Total Score, Mean (25 mg BID, Week 12): −11.46
Change from Baseline in PASI Total Score, Median (25 mg BID, Week 12): −12.30
Change from Baseline in PASI Total Score, LSMean (25 mg BID, Week 12): −11.9
Change from Baseline in PASI Total Score, Mean (25 mg BID, Week 16): −12.73
Change from Baseline in PASI Total Score, Median (25 mg BID, Week 16): −12.70
Change from Baseline in PASI Total Score, LSMean (25 mg BID, Week 16): −13.0
Change from Baseline in PASI Total Score, Mean (25 mg BID, Week 20): −13.50
Change from Baseline in PASI Total Score, Median (25 mg BID, Week 20): −13.60
Change from Baseline in PASI Total Score, LSMean (25 mg BID, Week 20): −13.7
Change from Baseline in PASI Total Score, Mean (25 mg BID, Week 24): −13.64
Change from Baseline in PASI Total Score, Median (25 mg BID, Week 24): −13.55
Change from Baseline in PASI Total Score, LSMean (25 mg BID, Week 24): −13.5
Change from Baseline in PASI Total Score, Mean (25 mg BID, Week 28): −14.33
Change from Baseline in PASI Total Score, Median (25 mg BID, Week 28): −14.40
Change from Baseline in PASI Total Score, LSMean (25 mg BID, Week 28): −14.5
Change from Baseline in PASI Total Score, Mean (25 mg BID, Week 32): −14.36
Change from Baseline in PASI Total Score, Median (25 mg BID, Week 32): −14.30
Change from Baseline in PASI Total Score, LSMean (25 mg BID, Week 32): −14.6
Change from Baseline in PASI Total Score, Mean (25 mg BID, Week 40): −13.58
Change from Baseline in PASI Total Score, Median (25 mg BID, Week 40): −14.10
Change from Baseline in PASI Total Score, LSMean (25 mg BID, Week 40): −13.9
Change from Baseline in PASI Total Score, Mean (25 mg BID, Week 52): −13.24
Change from Baseline in PASI Total Score, Median (25 mg BID, Week 52): −13.75
Subjects achieving PASI 75 (25 mg BID, Week 52): 24 (28.5%)
Change from Baseline in PASI Total Score, LSMean (25 mg BID, Week 52): −13.6
Subjects achieving 100% Improvement at Week 52 (PASI) (25 mg BID, Week 52): (17.1%)
Subjects achieving ≥75% Improvement at Week 52 (PASI 75 Response) (25 mg BID, Week 52): 24 (58.5%)
Subjects achieving ≥90% Improvement at Week 52 (PASI) (25 mg BID, Week 52): (36.6%)
Change from Baseline in PASI Total Score, Mean (25 mg QD, Week 1): −2.25
Change from Baseline in PASI Total Score, Median (25 mg QD, Week 1): −0.80
Change from Baseline in PASI Total Score, LSMean (25 mg QD, Week 1): −2.4
Change from Baseline in PASI Total Score, Mean (25 mg QD, Week 2): −4.50
Change from Baseline in PASI Total Score, Median (25 mg QD, Week 2): −4.00
Change from Baseline in PASI Total Score, LSMean (25 mg QD, Week 2): −4.5
Change from Baseline in PASI Total Score, Mean (25 mg QD, Week 4): −6.50
Change from Baseline in PASI Total Score, Median (25 mg QD, Week 4): −5.60
Change from Baseline in PASI Total Score, LSMean (25 mg QD, Week 4): −6.7
Change from Baseline in PASI Total Score, Mean (25 mg QD, Week 8): −9.39
Change from Baseline in PASI Total Score, Median (25 mg QD, Week 8): −7.70
Change from Baseline in PASI Total Score, LSMean (25 mg QD, Week 8): −9.5
Change from Baseline in PASI Total Score, Mean (25 mg QD, Week 12): −10.71
Change from Baseline in PASI Total Score, Median (25 mg QD, Week 12): −9.20
Change from Baseline in PASI Total Score, LSMean (25 mg QD, Week 12): −10.8
Change from Baseline in PASI Total Score, Mean (25 mg QD, Week 16): −12.76
Change from Baseline in PASI Total Score, Median (25 mg QD, Week 16): −12.20
Change from Baseline in PASI Total Score, LSMean (25 mg QD, Week 16): −12.0
Change from Baseline in PASI Total Score, Mean (25 mg QD, Week 20): −14.01
Change from Baseline in PASI Total Score, Median (25 mg QD, Week 20): −13.70
Change from Baseline in PASI Total Score, LSMean (25 mg QD, Week 20): −13.2
Change from Baseline in PASI Total Score, Mean (25 mg QD, Week 24): −13.56
Change from Baseline in PASI Total Score, Median (25 mg QD, Week 24): −14.30
Change from Baseline in PASI Total Score, LSMean (25 mg QD, Week 24): −12.8
Change from Baseline in PASI Total Score, Mean (25 mg QD, Week 28): −13.35
Change from Baseline in PASI Total Score, Median (25 mg QD, Week 28): −14.60
Change from Baseline in PASI Total Score, LSMean (25 mg QD, Week 28): −13.3
Change from Baseline in PASI Total Score, Mean (25 mg QD, Week 32): −14.06
Change from Baseline in PASI Total Score, Median (25 mg QD, Week 32): −15.50
Change from Baseline in PASI Total Score, LSMean (25 mg QD, Week 32): −13.6
Change from Baseline in PASI Total Score, Mean (25 mg QD, Week 40): −13.70
Change from Baseline in PASI Total Score, Median (25 mg QD, Week 40): −15.25
Change from Baseline in PASI Total Score, LSMean (25 mg QD, Week 40): −13.1
Change from Baseline in PASI Total Score, Mean (25 mg QD, Week 52): −13.55
Change from Baseline in PASI Total Score, Median (25 mg QD, Week 52): −14.55
Subjects achieving PASI 75 (25 mg QD, Week 52): 21 (48.8%)
Change from Baseline in PASI Total Score, LSMean (25 mg QD, Week 52): −12.9
Subjects achieving 100% Improvement at Week 52 (PASI) (25 mg QD, Week 52): (14.0%)
Subjects achieving ≥75% Improvement at Week 52 (PASI 75 Response) (25 mg QD, Week 52): 21 (48.8%)
Subjects achieving ≥90% Improvement at Week 52 (PASI) (25 mg QD, Week 52): (27.9%)
Change from Baseline in PASI Total Score, Mean (50 mg QD, Week 1): −3.10
Change from Baseline in PASI Total Score, Median (50 mg QD, Week 1): −1.80
Change from Baseline in PASI Total Score, LSMean (50 mg QD, Week 1): −3.1
Change from Baseline in PASI Total Score, Mean (50 mg QD, Week 2): −5.74
Change from Baseline in PASI Total Score, Median (50 mg QD, Week 2): −4.30
Change from Baseline in PASI Total Score, LSMean (50 mg QD, Week 2): −5.7
Change from Baseline in PASI Total Score, Mean (50 mg QD, Week 4): −8.25
Change from Baseline in PASI Total Score, Median (50 mg QD, Week 4): −7.85
Change from Baseline in PASI Total Score, LSMean (50 mg QD, Week 4): −8.2
Change from Baseline in PASI Total Score, Mean (50 mg QD, Week 8): −11.41
Change from Baseline in PASI Total Score, Median (50 mg QD, Week 8): −11.85
Change from Baseline in PASI Total Score, LSMean (50 mg QD, Week 8): −11.3
Change from Baseline in PASI Total Score, Mean (50 mg QD, Week 12): −12.96
Change from Baseline in PASI Total Score, Median (50 mg QD, Week 12): −14.25
Change from Baseline in PASI Total Score, LSMean (50 mg QD, Week 12): −12.8
Change from Baseline in PASI Total Score, Mean (50 mg QD, Week 16): −14.56
